# Laboratory results reported in patent publication US20240268372A1, “Methods and Compositions for Extending Organ and Tissue Preservation” (The General Hospital Corporation, priority 2021, published 2024).
# System: whole rat livers
# Assay: Optimized partial freezing of whole rat livers: ex vivo simulated transplantation (normothermic reperfusion with whole blood)
# Conditions: −10° C., 1 day
# Method: Within this standardized protocol, we first compared GLY, EG, and PG as main permeating CPA using a freezing temperature of −10° C. and storage duration of 1 day (FIG. 37). Using PG as the CPA, we subsequently tested the effect of freezing temperature (−10° C. vs −15° C.) and storage duration (1 day vs 5 days) on liver viability after partial freezing using the same protocol (FIG. 38).
# The Affinity Pixie Oxygenator is a clinical grade oxygenator that has graduated fiber bundle density technology and radial flow path that is designed to create a more uniform blood flow, enhance gas transfer, reduce pressure drops, and decrease prime volume. Moreover, it also contains a Balance® Biosurface that contains a hydrophilic polymer coating to reduce platelet adhesion and activation. This adaptation to the oxygenator is essential since recirculating whole blood during simulated transplantation may trigger coagulation and inflammatory events that are not representative of in vivo events and could skew observed outcomes.
# Machine perfusion system: The perfusion system provides a continuous perfusion through the portal vein that is pressure, flow, and temperature controlled. The perfusates can be either recirculated or flushed with a single pass though the liver and perfusates can be changed without interrupting perfusion. The setup and operation of the perfusion system is described in detail elsewhere (see, e.g., ref. 15). There were two oxygenators used in this study, including the Radnoti (Cat #130144) and Affinity Pixie Oxygenator (Cat #BBP241). Due to the flexibility and low cost of the Radnoti oxygenator, it was first used for initial optimization and characterization studies, including determining the effect of permeating CPAs (GLY vs EG vs PG; FIG. 37), temperature (−10 vs −15° C., FIG. 38) storage duration (1 vs 5 days, FIG. 38), and warm ischemic injury.
# Preconditioning during SNMP: Directly after procurement the livers were perfused with 250 ml of SNMP preloading solution (see Table 7 for composition of all solutions). The perfusion temperature was set at 21° C. and perfusion was initiated at 5 ml/min. […] Next, the livers were perfused for 30 additional minutes to allow for cellular uptake of 3-O-methyl-D-glucose (3-OMG).
# Preloading of CPAs during HMP: The SNMP preloading solution was gradually switched to HMP preloading solution in […] increments, each with 10% decreasing and 10% increasing volumetric fractions of SNMP and HMP preloading solution, respectively. During this switch, the perfusion temperature was lowered to 4° C., and flows were adjusted to a maximum perfusion pressure of 3 mmHg. Dependent on the flowrate, the solution switch took 10-15 minutes. The HMP preloading was continued for 30 additional minutes to ensure complete equilibration of the solution throughout the peripheral liver tissue.
# This was done in 10 fractions of 10 ml, each with 10% decreasing and 10% increasing volumetric fractions of HMP preloading solution and storage solution, respectively. During this switch, the perfusion temperature was maintained at 4° C., and the flowrates were lowered to ensure a maximum perfusion pressure of 3 mmHg. The final 15 ml fraction of 100% storage solution was loaded at a fixed flowrate of 0.5 ml/min.
# Partial freezing: After loading of the storage solution, the liver was placed in a bag with 50 ml fresh storage solution and suspended in a pre-cooled chiller (Engel, Schwertberg, Austria). Depending on the experimental condition the chiller temperature was pre-cooled to −10° C. or −15° C. and the liver stored for […] 5 days.
# [1] = at 2 h of simulated transplantation
structure (smiles),measurement,setting,value
"OCCO [EG, ethylene glycol]",bile production during simulated transplantation,,did not produce bile
same,lactate clearance after first hour of simulated transplantation,,not observed
same,"microscopic tissue structure (H&E, blinded pathologist)",,favorable to modest results
same,oxygen uptake during simulated transplantation,at 2 h,21.4 ± 5.8 µL O2/min/g
same,tissue adenylate energy charge,at 2 h,0.088±0.065
same,weight gain during simulated transplantation,at 2 h,2.50±5.26%
same,AST levels,[1],967±330 U/L
same,portal lactate concentration,[1],6.68 ± 1.71 mM
